Patent US20240262808A1, “XANTHINE OXIDASE INHIBITOR” (JIANGSU ATOM BIOSCIENCE AND PHARMACEUTICAL CO., LTD., priority 2021, published 2024)

What was measured:
Xanthine Oxidase (XO) = biological target: T1, Xanthine Oxidase (XO) (Bos taurus, UniProt P80457); experiment: Xanthine oxidase activity inhibition test (XO/HRP double enzyme coupling, Ampliflu Red fluorescence); assay type: biochemical; conditions: 30 min preincubation and 30 min reaction at 30° C., pH 7.5; read-out: Xanthine oxidase inhibitor activity IC50
T1 construct: purchased Sigma-Aldrich Co., LLC
T1 sequence (P80457 2-1332 limits assumed): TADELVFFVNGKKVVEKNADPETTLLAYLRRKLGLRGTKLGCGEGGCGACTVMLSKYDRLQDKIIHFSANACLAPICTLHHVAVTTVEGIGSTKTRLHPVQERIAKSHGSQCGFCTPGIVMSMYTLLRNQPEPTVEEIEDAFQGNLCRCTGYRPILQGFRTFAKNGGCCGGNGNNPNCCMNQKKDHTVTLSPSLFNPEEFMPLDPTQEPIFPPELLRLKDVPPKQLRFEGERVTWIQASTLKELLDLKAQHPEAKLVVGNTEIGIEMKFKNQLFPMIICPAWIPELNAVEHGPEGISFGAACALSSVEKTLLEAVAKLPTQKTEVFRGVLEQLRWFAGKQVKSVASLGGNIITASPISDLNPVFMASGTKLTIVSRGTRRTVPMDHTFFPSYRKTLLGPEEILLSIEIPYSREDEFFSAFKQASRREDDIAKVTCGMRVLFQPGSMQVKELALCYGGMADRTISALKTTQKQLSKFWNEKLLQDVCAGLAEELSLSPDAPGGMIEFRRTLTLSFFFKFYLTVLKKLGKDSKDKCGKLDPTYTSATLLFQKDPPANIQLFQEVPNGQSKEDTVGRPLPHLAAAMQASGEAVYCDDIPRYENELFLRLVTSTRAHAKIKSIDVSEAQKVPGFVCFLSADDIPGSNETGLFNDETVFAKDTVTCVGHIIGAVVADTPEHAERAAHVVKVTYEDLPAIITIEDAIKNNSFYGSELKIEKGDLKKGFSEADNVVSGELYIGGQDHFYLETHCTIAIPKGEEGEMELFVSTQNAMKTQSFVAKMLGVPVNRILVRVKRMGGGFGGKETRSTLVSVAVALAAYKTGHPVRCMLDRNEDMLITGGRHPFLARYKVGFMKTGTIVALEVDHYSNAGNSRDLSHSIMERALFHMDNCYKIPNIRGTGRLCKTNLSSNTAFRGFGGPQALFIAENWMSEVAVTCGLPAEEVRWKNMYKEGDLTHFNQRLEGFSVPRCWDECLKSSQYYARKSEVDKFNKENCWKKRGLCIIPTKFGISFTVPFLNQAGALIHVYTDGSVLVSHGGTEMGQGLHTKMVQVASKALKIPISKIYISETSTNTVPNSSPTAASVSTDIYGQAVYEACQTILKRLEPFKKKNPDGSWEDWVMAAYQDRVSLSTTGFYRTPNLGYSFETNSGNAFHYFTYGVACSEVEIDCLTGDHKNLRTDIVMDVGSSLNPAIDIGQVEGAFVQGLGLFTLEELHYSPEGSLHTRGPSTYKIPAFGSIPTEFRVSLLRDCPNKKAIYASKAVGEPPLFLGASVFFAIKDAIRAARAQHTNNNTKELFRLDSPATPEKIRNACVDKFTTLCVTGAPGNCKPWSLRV
Description: A double enzyme coupling reaction of Xanthine Oxidase (XO) and Horseradish Peroxidase (HRP) and their substrates was used to test the activity inhibition of xanthine oxidase. First, xanthine oxidase oxidized hypoxanthine to produce xanthine and hydrogen peroxide, and further oxidized xanthine to produce uric acid and hydrogen peroxide. […] The fluorescence intensity of resorufin was determined by fluorescence enzyme spectrometer in direct proportion to xanthine oxidase activity.
In 96-well polypropylene reaction plate, the test compound was diluted into a 200-fold concentration of solution with DMSO through 2.5-fold serial dilution, and further diluted in ultra-pure water to obtain a series of 3-fold concentration of diluted solution.
Reaction solution A: 6 mU/mL xanthine oxidase solution was prepared in 0.1M Tris-HCl (pH7.5) buffer solution.
Reaction solution B: a mixture of 0.6 U/mL horseradish peroxidase solution, 0.15 mM Ampliflu Red and 0.3 mM hypoxanthine in 0.1M Tris-HCl (pH 7.5) buffer solution. The solution was protected from light at 4° C. and was prepared when it was ready for use.
9 μL reaction solution A was mixed with 3-fold concentration serial dilution solution of 9 μL test compound in a 96-well test plate, placed on a flat plate oscillator, and mixed at 30° C. at 100 rpm for 30 min. Then 9 μL reaction solution B was added. The enzyme reaction was carried out at 30° C. for 30 minutes. The fluorescence intensity at excitation light 530 nm and emission light 590 nm was measured by a microplate reader. The fluorescence intensity of the control without xanthine oxidase was 0%, and that of the control without the test compound was 100%.

[1] = test system: rats with hyperuricemia induced by potassium oxonate; experiment: Treatment of hyperuricemia in rats induced by potassium oxonate, serum uric acid; assay type: in vivo, SD rat; conditions: for Uric acid 1 h: 1 h after potassium oxonate; for Uric acid 3 h: 3 h after potassium oxonate; for Uric acid 5 h: 5 h after potassium oxonate; for Uric acid 0 h: before potassium oxonate injection
Description: Compounds 15, 24 and 38 were white powder, and compound 57 was light yellow powder, which was ground with 0.5% CMC-Na before use and prepared into suspension with corresponding concentrations (0.2 and 0.4 mg/mL) for gavage.
SD rat, SPF grade, male, weighing 180-220 g, purchased from Shanghai Slake Experimental Animal Co., Ltd., production license number: SCXK (Hu) 2017-0005, quality certificate number: 20170005050604.
72 SD rats, male, weighed about 200-230 g after one week of acclimatization. […] Drugs for each group were prepared into suspension with corresponding concentration, and the administration volume was 0.5 mL/100 g.
After purchased and fed for acclimatization, the rats in each group were fasted for 12 h, and the model was established by intraperitoneal injection with potassium oxonate at the dose of 300 mg/kg, and each of the test drug groups were administrated once by gavage after model establishment. Blood samples were collected from posterior orbital venous plexus before and 1, 3 and 5 h after potassium oxonate injection, centrifugated at 3500 rpm for 10 min, and 30 μL serum was taken to determine uric acid levels at each time point.
Then in two consecutive days, rat models were established with potassium oxonate by intraperitoneal injection at a dose of 300 mg/kg every day, and each test drug group was administrated once by gavage after model establishment. On the third day of administration, the rats were fasted for 12 h, and with the same test method on the first day, blood samples were collected from the posterior orbital venous plexus before and 1, 3 and 5 h after potassium oxonate injection, centrifuged at 3500 rpm for 10 min, and 30 μL serum was taken to determine the uric acid level at each time point.
The measurement data of each experiment were expressed as (mean)±s (standard deviation). ANOVA-Dunnett T test was used to investigate the significance between groups, and P<0.05 was used as a significant index, P<0.01 was used as a very significant index.

[2] = 1-day administration, 1 mg/kg gavage
[3] = 1-day administration, 2 mg/kg gavage
[4] = 1-day administration, 1 and 2 mg/kg groups, at 1, 3 and 5 h after model establishment
[5] = 3-day administration, 1 mg/kg gavage
[6] = 3-day administration, 2 mg/kg gavage

Question: Which IC50 (Xanthine Oxidase (XO)) does the source give for `N#Cc1cn(C2CCOC2)c2ccc(-n3ncc(C(=O)O)n3)cc12` (stereo not shown) [Compound 44, 2-[3-cyano-1-(tetrahydrofuran-3-yl)-1H-indole-5-yl]-2H-1,2,3-triazole-4-formic acid] here?
Answer: 9.58 nM

Question: `N#Cc1cn(CC2CC2)c2ccc(-n3ncc(C(=O)O)n3)cc12` [Compound 41, 2-(3-cyano-1-cyclopropylmethyl-1H-indole-5-yl)-2H-1,2,3-triazole-4-formic acid] was tested. Which IC50 (Xanthine Oxidase (XO)) did it give?
Answer: 1.72 nM

Question: Which results are given for `CC(C)n1nc(C#N)c2cc(-c3cc(C(=O)O)ccn3)ccc21` [Compound 57, 2-(3-cyano-1-isopropyl-1H-indazole-5-yl) isonicotinic acid]?
Answer: Uric acid 1 h [1, 2]: 74.7 ± 11.3 µmol/L; Uric acid 3 h [1, 2]: 99.5 ± 12.4 µmol/L; Uric acid 5 h [1, 2]: 85.7 ± 8.5 µmol/L; Uric acid 0 h [1, 2]: 71.2 ± 8.3 µmol/L; Uric acid 1 h [1, 3]: 64.0 ± 13.5 µmol/L; Uric acid 3 h [1, 3]: 107.4 ± 12.5 µmol/L; Uric acid 5 h [1, 3]: 94.8 ± 6.4 µmol/L; Uric acid 0 h [1, 3]: 74.5 ± 8.9 µmol/L; Serum uric acid level compared with model group [1, 4]: significantly decreased; Uric acid 1 h [1, 5]: 57.5 ± 9.3 µmol/L; Uric acid 3 h [1, 5]: 75.3 ± 6.3 µmol/L; Uric acid 5 h [1, 5]: 90.0 ± 5.9 µmol/L; Uric acid 0 h [1, 5]: 70.8 ± 8.6 µmol/L; Uric acid 1 h [1, 6]: 63.6 ± 11.7 µmol/L; Uric acid 3 h [1, 6]: 75.2 ± 16.9 µmol/L; Uric acid 5 h [1, 6]: 81.1 ± 8.0 µmol/L; Uric acid 0 h [1, 6]: 72.7 ± 15.6 µmol/L; Serum uric acid level compared with model group ([1]; 3-day administration, 1 and 2 mg/kg groups, at 1 and 3 h after model establishment, P<0.01): significantly decreased; IC50 (Xanthine Oxidase (XO)): 2.89 nM

Question: `CC(C)n1nc(C#N)c2cc(-c3ccc(C(=O)O)s3)ccc21` [Compound 28, 2-(3-cyano-1-isopropyl-1H-indazole-5-yl)thiophen-2-formic acid] was tested. Which IC50 (Xanthine Oxidase (XO)) did it give?
Answer: 7.91 nM

Question: How did the “Uric acid 1 h” value [1, 2] turn out when `CC(C)n1nc(C#N)c2cc(-n3ncc(C(=O)O)n3)ccc21` [Compound 24, 2-(3-cyano-1-isopropyl-1H-indazole-5-yl)-2H-1,2,3-triazole-4-formic acid] was run?
Answer: 96.2 ± 9.3 µmol/L

Question: And the “Uric acid 3 h” value [1, 2]?
Answer: 131.0 ± 18.9 µmol/L

Question: And the “Uric acid 5 h” value [1, 2]?
Answer: 96.8 ± 13.6 µmol/L

Question: And the “Uric acid 0 h” value [1, 2]?
Answer: 65.3 ± 5.8 µmol/L

Question: What about the “Uric acid 1 h” value [1, 3] of the same compound?
Answer: 96.8 ± 5.4 µmol/L

Question: What about the “Uric acid 3 h” value [1, 3] of the same compound?
Answer: 126.4 ± 14.4 µmol/L

Question: What about the “Uric acid 5 h” value [1, 3] of the same compound?
Answer: 105.1 ± 16.6 µmol/L

Question: And the “Uric acid 0 h” value [1, 3]?
Answer: 77.6 ± 9.2 µmol/L

Question: What about the “Serum uric acid level compared with model group” value ([1]; 1-day administration, 1 and 2 mg/kg groups, at 1 h after model establishment, P<0.01) of the same compound?
Answer: significantly decreased

Question: What about the “Uric acid 1 h” value [1, 5] of the same compound?
Answer: 105.5 ± 12.7 µmol/L

Question: And the “Uric acid 3 h” value [1, 5]?
Answer: 155.3 ± 38.2 µmol/L

Question: What about the “Uric acid 5 h” value [1, 5] of the same compound?
Answer: 102.6 ± 8.3 µmol/L

Question: What about the “Uric acid 0 h” value [1, 5] of the same compound?
Answer: 87.8 ± 16.2 µmol/L

Question: And the “Uric acid 1 h” value [1, 6]?
Answer: 97.2 ± 27.5 µmol/L

Question: And the “Uric acid 3 h” value [1, 6]?
Answer: 104.0 ± 5.8 µmol/L

Question: What about the “Uric acid 5 h” value [1, 6] of the same compound?
Answer: 97.0 ± 14.6 µmol/L

Question: What about the “Uric acid 0 h” value [1, 6] of the same compound?
Answer: 90.4 ± 9.1 µmol/L

Question: And the “Serum uric acid level compared with model group” value ([1]; 3-day administration, 2 mg/kg group, at 3 h after model establishment, P<0.01)?
Answer: significantly decreased

Question: What about the IC50 (Xanthine Oxidase (XO)) of the same compound?
Answer: 3.65 nM

Question: `N#Cc1nn(C2CC2)c2ccc(-n3cc(C(=O)O)cn3)cc12` [Compound 50, 1-(3-cyano-1-cyclopropyl-1H-indazole-5-yl)-1H-pyrazole-4-formic acid] was tested. Which IC50 (Xanthine Oxidase (XO)) did it give?
Answer: 9.89 nM

Question: Which “Uric acid 1 h” value [1, 2] does the source give for `CC(C)n1nc(C#N)c2cc(-n3cc(C(=O)O)cn3)ccc21` [Compound 38, 1-(3-cyano-1-isopropyl-1H-indazole-5-yl)-1H-pyrazole-4-formic acid] here?
Answer: 70.6 ± 7.7 µmol/L

Question: And the “Uric acid 3 h” value [1, 2]?
Answer: 74.6 ± 19.6 µmol/L

Question: And the “Uric acid 5 h” value [1, 2]?
Answer: 64.3 ± 10.6 µmol/L

Question: What about the “Uric acid 0 h” value [1, 2] of the same compound?
Answer: 75.6 ± 6.8 µmol/L

Question: What about the “Uric acid 1 h” value [1, 3] of the same compound?
Answer: 66.5 ± 7.5 µmol/L

Question: And the “Uric acid 3 h” value [1, 3]?
Answer: 77.4 ± 9.2 µmol/L

Question: What about the “Uric acid 5 h” value [1, 3] of the same compound?
Answer: 56.8 ± 4.0 µmol/L

Question: And the “Uric acid 0 h” value [1, 3]?
Answer: 73.1 ± 6.7 µmol/L

Question: And the “Serum uric acid level compared with model group” value [1, 4]?
Answer: significantly decreased

Question: What about the “Uric acid 1 h” value [1, 5] of the same compound?
Answer: 62.1 ± 14.1 µmol/L

Question: What about the “Uric acid 3 h” value [1, 5] of the same compound?
Answer: 69.4 ± 16.1 µmol/L

Question: What about the “Uric acid 5 h” value [1, 5] of the same compound?
Answer: 55.1 ± 5.8 µmol/L

Question: What about the “Uric acid 0 h” value [1, 5] of the same compound?
Answer: 61.0 ± 5.7 µmol/L

Question: And the “Uric acid 1 h” value [1, 6]?
Answer: 54.4 ± 5.1 µmol/L

Question: And the “Uric acid 3 h” value [1, 6]?
Answer: 73.1 ± 9.4 µmol/L

Question: What about the “Uric acid 5 h” value [1, 6] of the same compound?
Answer: 58.1 ± 9.6 µmol/L

Question: What about the “Uric acid 0 h” value [1, 6] of the same compound?
Answer: 60.9 ± 8.1 µmol/L

Question: And the “Serum uric acid level compared with model group” value ([1]; 3-day administration, 1 and 2 mg/kg groups, at 1, 3 and 5 h after model establishment)?
Answer: significantly decreased

Question: And the IC50 (Xanthine Oxidase (XO))?
Answer: 3.24 nM

Question: For `CC(C)n1cc(C#N)c2cc(-n3ncc(C(=O)O)n3)ccc21` [Compound 15, 2-(3-cyano-1-isopropyl-1H-indole-5-yl)-2H-1,2,3-triazole-4-formic acid], which “Uric acid 1 h” value [1, 2] is on record?
Answer: 104.3 ± 20.3 µmol/L

Question: And the “Uric acid 3 h” value [1, 2]?
Answer: 121.6 ± 12.2 µmol/L

Question: What about the “Uric acid 5 h” value [1, 2] of the same compound?
Answer: 118.4 ± 15.3 µmol/L

Question: And the “Uric acid 0 h” value [1, 2]?
Answer: 72.0 ± 6.7 µmol/L

Question: What about the “Uric acid 1 h” value [1, 3] of the same compound?
Answer: 98.1 ± 6.3 µmol/L

Question: What about the “Uric acid 3 h” value [1, 3] of the same compound?
Answer: 130.7 ± 11.5 µmol/L

Question: And the “Uric acid 5 h” value [1, 3]?
Answer: 109.7 ± 22.5 µmol/L

Question: What about the “Uric acid 0 h” value [1, 3] of the same compound?
Answer: 74.1 ± 10.3 µmol/L

Question: What about the “Serum uric acid level compared with model group” value ([1]; 1-day administration, 2 mg/kg group, at 1 h after model establishment, P<0.01) of the same compound?
Answer: significantly decreased

Question: And the “Uric acid 1 h” value [1, 5]?
Answer: 78.4 ± 12.1 µmol/L

Question: What about the “Uric acid 3 h” value [1, 5] of the same compound?
Answer: 166.1 ± 37.5 µmol/L

Question: What about the “Uric acid 5 h” value [1, 5] of the same compound?
Answer: 100.0 ± 12.5 µmol/L

Question: What about the “Uric acid 0 h” value [1, 5] of the same compound?
Answer: 70.9 ± 12.8 µmol/L

Question: And the “Uric acid 1 h” value [1, 6]?
Answer: 88.2 ± 21.3 µmol/L

Question: And the “Uric acid 3 h” value [1, 6]?
Answer: 139.8 ± 32.7 µmol/L

Question: And the “Uric acid 5 h” value [1, 6]?
Answer: 97.6 ± 21.0 µmol/L

Question: And the “Uric acid 0 h” value [1, 6]?
Answer: 64.1 ± 4.8 µmol/L

Question: What about the IC50 (Xanthine Oxidase (XO)) of the same compound?
Answer: 1.84 nM

Question: `CCCn1nc(C#N)c2cc(-n3cc(C(=O)O)cn3)ccc21` [Compound 35, 1-(3-cyano-1-propyl-1H-indazole-5-yl)-1H-pyrazole-4-formic acid] was tested. Which IC50 (Xanthine Oxidase (XO)) did it give?
Answer: 11.8 nM

Question: How did the IC50 (Xanthine Oxidase (XO)) turn out when `CC(C)Cn1nc(C#N)c2cc(-n3cc(C(=O)O)cn3)ccc21` [Compound 32, 1-(3-cyano-1-isobutyl-1H-indazole-5-yl)-1H-pyrazole-4-formic acid] was run?
Answer: 5.11 nM

Question: How did the IC50 (Xanthine Oxidase (XO)) turn out when `N#Cc1cn(C2CCC2)c2ccc(-n3ncc(C(=O)O)n3)cc12` [Compound 47, 2-(3-cyano-1-cyclobutyl-1H-indole-5-yl)-2H-1,2,3-triazole-4-formic acid] was run?
Answer: 1.71 nM
